Test results: patent US12492188B2, “1H-benzo[D]imidazole derivatives as TLR9 inhibitors for the treatment of fibrosis” (BRISTOL-MYERS SQUIBB COMPANY, priority 2020, dated 2025)
Like-named read-outs stand apart in the source and are kept apart here.

Columns and labels:
Assay type in all cases: cell-based
human TLR7 = molecular target: T1, human TLR7 (Homo sapiens, UniProt Q9NYK1); test: TLR7 inhibition reporter assay (HEK-Blue cells, secreted embryonic alkaline phosphatase reporter); conditions: HEK-Blue cells overexpressing human TLR7, stimulated with gardiquimod 7.5 μM; read-out: TLR 7 IC50
T1 construct: host or cells: HEK-Blue cells (HEK293-derived reporter line)
T1 sequence (Q9NYK1 27-1049): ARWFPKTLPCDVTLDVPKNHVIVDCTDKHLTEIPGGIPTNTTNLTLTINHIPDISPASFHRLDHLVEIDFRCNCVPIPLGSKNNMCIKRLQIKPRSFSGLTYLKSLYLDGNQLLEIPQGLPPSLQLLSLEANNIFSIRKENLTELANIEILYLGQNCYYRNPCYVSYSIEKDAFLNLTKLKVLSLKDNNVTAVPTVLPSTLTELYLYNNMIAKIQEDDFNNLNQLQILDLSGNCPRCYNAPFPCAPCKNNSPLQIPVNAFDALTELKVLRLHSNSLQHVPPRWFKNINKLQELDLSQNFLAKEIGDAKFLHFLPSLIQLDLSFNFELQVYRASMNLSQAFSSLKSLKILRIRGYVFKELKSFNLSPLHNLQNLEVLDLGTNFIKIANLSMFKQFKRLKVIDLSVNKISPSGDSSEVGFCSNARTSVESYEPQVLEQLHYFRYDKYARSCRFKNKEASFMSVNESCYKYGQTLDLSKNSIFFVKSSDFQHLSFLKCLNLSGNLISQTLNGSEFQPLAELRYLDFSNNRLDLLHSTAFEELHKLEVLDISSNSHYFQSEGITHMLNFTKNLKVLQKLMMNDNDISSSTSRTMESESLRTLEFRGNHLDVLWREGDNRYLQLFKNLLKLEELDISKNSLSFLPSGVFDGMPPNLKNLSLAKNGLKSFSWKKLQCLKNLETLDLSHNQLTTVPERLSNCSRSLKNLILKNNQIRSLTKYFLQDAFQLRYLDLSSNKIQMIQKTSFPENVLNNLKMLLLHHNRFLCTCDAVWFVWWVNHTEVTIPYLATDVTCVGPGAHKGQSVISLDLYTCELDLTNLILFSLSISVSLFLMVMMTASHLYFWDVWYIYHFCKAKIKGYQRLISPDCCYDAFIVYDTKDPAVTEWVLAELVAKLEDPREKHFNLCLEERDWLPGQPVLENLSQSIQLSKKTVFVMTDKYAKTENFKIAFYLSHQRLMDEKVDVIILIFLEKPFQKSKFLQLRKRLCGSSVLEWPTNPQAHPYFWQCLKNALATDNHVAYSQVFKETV
How it was run: (§1)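 Inhibitors are tested in dose response (0.05 nM–50 μM) on HEK-Blue reporter cells expressing human TLR7, TLR8 or TLR9. After 30 min at room temperature, each line is stimulated with its own agonist (gardiquimod 7.5 μM, R848 15.9 μM or ODN2006 5 nM, final) and SEAP is measured 22 h later.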

human TLR8 = molecular target: T2, human TLR8 (Homo sapiens, UniProt Q9NR97); test: TLR8 inhibition reporter assay (HEK-Blue cells, secreted embryonic alkaline phosphatase reporter); conditions: HEK-Blue cells overexpressing human TLR8, stimulated with R848 15.9 μM; read-out: TLR 8 IC50
T2 construct: host or cells: HEK-Blue cells (HEK293-derived reporter line)
T2 sequence (Q9NR97 27-1041): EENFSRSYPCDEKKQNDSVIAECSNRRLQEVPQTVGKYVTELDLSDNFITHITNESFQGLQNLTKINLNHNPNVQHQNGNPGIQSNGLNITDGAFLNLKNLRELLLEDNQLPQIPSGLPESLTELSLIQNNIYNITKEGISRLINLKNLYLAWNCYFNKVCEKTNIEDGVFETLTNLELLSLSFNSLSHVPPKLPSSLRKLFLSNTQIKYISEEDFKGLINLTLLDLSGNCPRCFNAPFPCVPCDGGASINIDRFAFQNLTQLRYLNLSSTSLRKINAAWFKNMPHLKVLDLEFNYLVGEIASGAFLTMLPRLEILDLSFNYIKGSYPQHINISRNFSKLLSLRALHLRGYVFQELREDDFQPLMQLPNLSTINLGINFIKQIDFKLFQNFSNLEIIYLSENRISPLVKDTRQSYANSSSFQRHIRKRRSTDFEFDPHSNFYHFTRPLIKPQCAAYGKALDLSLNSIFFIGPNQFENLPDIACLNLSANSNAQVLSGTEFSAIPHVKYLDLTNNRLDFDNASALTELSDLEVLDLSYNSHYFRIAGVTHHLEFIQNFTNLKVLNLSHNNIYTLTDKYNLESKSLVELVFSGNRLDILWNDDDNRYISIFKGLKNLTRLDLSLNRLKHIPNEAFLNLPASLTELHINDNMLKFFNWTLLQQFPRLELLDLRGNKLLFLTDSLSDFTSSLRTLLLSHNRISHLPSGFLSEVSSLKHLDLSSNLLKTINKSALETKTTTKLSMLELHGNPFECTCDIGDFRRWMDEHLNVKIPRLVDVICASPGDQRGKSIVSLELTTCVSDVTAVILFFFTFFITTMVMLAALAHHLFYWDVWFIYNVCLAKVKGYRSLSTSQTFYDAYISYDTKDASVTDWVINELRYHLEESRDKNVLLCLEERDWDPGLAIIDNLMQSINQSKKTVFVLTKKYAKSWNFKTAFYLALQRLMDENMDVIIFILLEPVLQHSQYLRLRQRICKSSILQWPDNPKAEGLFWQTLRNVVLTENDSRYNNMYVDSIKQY
How it was run: as §1

human TLR9 = molecular target: T3, human TLR9 (Homo sapiens, UniProt Q9NR96); test: TLR9 inhibition reporter assay (HEK-Blue cells, secreted embryonic alkaline phosphatase reporter)
T3 construct: host or cells: HEK-Blue cells (HEK293-derived reporter line)
T3 sequence (Q9NR96 26-1032): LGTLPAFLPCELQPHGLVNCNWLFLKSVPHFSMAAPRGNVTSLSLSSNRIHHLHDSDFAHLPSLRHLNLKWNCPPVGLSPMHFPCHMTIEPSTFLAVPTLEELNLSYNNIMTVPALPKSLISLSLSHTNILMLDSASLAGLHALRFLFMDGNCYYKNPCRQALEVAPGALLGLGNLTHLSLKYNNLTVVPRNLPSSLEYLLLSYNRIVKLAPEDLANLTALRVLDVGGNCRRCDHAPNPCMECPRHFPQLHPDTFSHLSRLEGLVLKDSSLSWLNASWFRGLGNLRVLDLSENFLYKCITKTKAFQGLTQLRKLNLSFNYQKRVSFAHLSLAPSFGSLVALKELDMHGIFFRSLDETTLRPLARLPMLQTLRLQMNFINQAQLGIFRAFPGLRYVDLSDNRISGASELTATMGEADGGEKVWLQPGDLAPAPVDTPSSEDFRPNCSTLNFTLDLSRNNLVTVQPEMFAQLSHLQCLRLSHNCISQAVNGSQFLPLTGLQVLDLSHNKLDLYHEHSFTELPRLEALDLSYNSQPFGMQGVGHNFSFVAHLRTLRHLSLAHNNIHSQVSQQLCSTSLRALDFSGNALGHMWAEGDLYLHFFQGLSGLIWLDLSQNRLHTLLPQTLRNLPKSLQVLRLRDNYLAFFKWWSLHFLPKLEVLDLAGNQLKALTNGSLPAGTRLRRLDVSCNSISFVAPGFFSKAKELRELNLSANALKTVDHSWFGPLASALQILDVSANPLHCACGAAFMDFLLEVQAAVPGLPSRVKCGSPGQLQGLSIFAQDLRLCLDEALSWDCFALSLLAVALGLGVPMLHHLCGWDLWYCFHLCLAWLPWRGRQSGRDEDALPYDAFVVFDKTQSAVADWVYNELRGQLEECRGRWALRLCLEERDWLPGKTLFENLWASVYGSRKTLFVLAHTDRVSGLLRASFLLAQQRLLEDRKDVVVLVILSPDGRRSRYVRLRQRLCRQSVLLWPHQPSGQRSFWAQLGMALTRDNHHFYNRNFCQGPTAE
How it was run: as §1

[1] = HEK-Blue cells overexpressing human TLR9, stimulated with ODN2006 5 nM, 22 hour incubation, reporter readout
[2] = HEK-Blue cells overexpressing human TLR9, stimulated with ODN2006 5 nM, read-out: TLR 9 IC50

Structure (SMILES) | IC50 (human TLR7) [nM] | IC50 (human TLR8) [nM] | IC50 (human TLR9; [1]) [nM] | IC50 (human TLR9; [2]) [nM] | IC50 (human TLR9) [nM] | IC50 (human TLR9; HEK-Blue human TLR9 reporter cells) [nM]
COc1ccc(-c2nc3c(C)cc(C4CCN(C5CCN(C(=O)C(C)C)CC5)CC4)cc3[nH]2)cc1OC [Example 14, 1-(4-(2-(3,4-dimethoxyphenyl)-4-methyl-1H-benzo[d]imidazol-6-yl)-[1,4′-bipiperidin]-1′-yl)-2-methylpropan-1-one] | > 50000 | > 50000 | 510 | 509 |  | 
Cc1cc(-c2ccc(CN3CCC(N4CCCC4)CC3)cc2)cc2c1nc(-c1ccc(S(C)(=O)=O)cc1)n2C1CC1 [Example 372, 1-cyclopropyl-4-methyl-2-(4-(methylsulfonyl)phenyl)-6-(4-((4-(pyrrolidin-1-yl)piperidin-1-yl)methyl)phenyl)-1H-benzo[d]imidazole] | 1400 | 5100 | 54 |  |  | 
COc1ccc(-c2nc3cc(C4CCN(C5CCN(C6CC6)CC5)CC4)ccc3n2CC(F)F)cc1OC [Example 39, 5-(1′-cyclopropyl-[1,4′-bipiperidin]-4-yl)-1-(2,2-difluoroethyl)-2-(3,4-dimethoxyphenyl)-1H-benzo[d]imidazole] | 6400 | 30000 | 590 | 590 |  | 
Cc1cc(-c2ccc(N3CCN(C(C)C)CC3)cc2)cc2c1nc(-c1ccc(S(C)(=O)=O)cc1)n2C [Example 86, 6-(4-(4-isopropylpiperazin-1-yl)phenyl)-1,4-dimethyl-2-(4-(methylsulfonyl)phenyl)-1H-benzo[d]imidazole] | 5200 | > 50000 | 300 |  |  | 
Cn1c(-c2ccc(S(C)(=O)=O)cc2)nc2cc(C3CCN(C4CCN(C5CC5)CC4)CC3)c(F)cc21 [Example 241, 5-(1′-cyclopropyl-[1,4′-bipiperidin]-4-yl)-6-fluoro-1-methyl-2-(4-(methylsulfonyl)phenyl)-1H-benzo[d]imidazole] | > 50000 | > 50000 |  | 1710 | 1700 | 
COc1ccc(-c2nc3c(C)cc(C4CCN(C5CC6(C5)CN(C5CCC5)C6)CC4)cc3n2C)cc1OC [Example 49, 6-(1-(2-cyclobutyl-2-azaspiro[3.3]heptan-6-yl)piperidin-4-yl)-2-(3,4-dimethoxyphenyl)-1,4-dimethyl-1H-benzo[d]imidazole] | 5800 | > 50000 | 65 | 65 |  | 
CC(C)N1CCC(N2CCC(c3ccc4c(nc(-c5ccc(S(C)(=O)=O)cc5)n4C)c3F)CC2)CC1 [Example 88, 4-fluoro-5-(1′-isopropyl-[1,4′-bipiperidin]-4-yl)-1-methyl-2-(4-(methylsulfonyl)phenyl)-1H-benzo[d]imidazole] | > 50000 | > 50000 | 360 | 363 |  | 
Cn1c(-c2ccc(S(C)(=O)=O)cc2)nc2c(F)cc(C3CCN(C4CCCN(C5CCOCC5)CC4)CC3)cc21 (stereo not drawn) [Example 301, 4-fluoro-1-methyl-2-(4-(methylsulfonyl)phenyl)-6-(1-(1-(tetrahydro-2H-pyran-4-yl)azepan-4-yl)piperidin-4-yl)-1H-benzo[d]imidazole] | 3100 | > 50000 |  | 48 |  | 48
CC(C)N1CCCC(N2CCC(c3ccc4nc(-c5ccc(S(C)(=O)=O)cc5)n(C)c4c3F)CC2)CC1 (single isomer, unassigned) [Example 113, 7-fluoro-6-(1-(1-isopropylazepan-4-yl)piperidin-4-yl)-1-methyl-2-(4-(methylsulfonyl)phenyl)-1H-benzo[d]imidazole] | > 50000 | > 50000 | 32 |  |  | 
Cn1c(-c2ccc(S(C)(=O)=O)cc2)nc2c(F)cc(-c3ccc(CN4CCC(N5CCCC5)CC4)cc3)cc21 [Example 409, 4-fluoro-1-methyl-2-(4-(methylsulfonyl)phenyl)-6-(4-((4-(pyrrolidin-1-yl)piperidin-1-yl)methyl)phenyl)-1H-benzo[d]imidazole] | 1500 | 1000 | 5.3 | 5.3 |  | 
COc1ccc(-c2nc3ccc(-c4ccc(CN5CCC(N(C)C)CC5)cc4)cc3n2C)cc1 [Example 376, 1-(4-(2-(4-methoxyphenyl)-1-methyl-1H-benzo[d]imidazol-6-yl)benzyl)-N,N-dimethylpiperidin-4-amine] | 800 | 1400 | 210 | 206 |  | 
Cn1c(-c2ccc(S(C)(=O)=O)cc2)nc2cc(C3CCN(C4CC5CCC(C4)N5C4CCOCC4)CC3)cc(F)c21 (stereo not drawn) [Example 212, 7-fluoro-1-methyl-2-(4-(methylsulfonyl)phenyl)-5-(1-(8-(tetrahydro-2H-pyran-4-yl)-8-azabicyclo[3.2.1]octan-3-yl)piperidin-4-yl)-1H-benzo[d]imidazole] | > 50000 | > 50000 |  | 456 | 460 | 
